According to PMC6514680, “Labdane and Abietane Diterpenoids from Juniperus oblonga and Their Cytotoxic Activity” (Molecules, 2019):
Read-outs that look alike come from different tables or passages of the source.

Assays:
[1] = MTT cytotoxicity assay, MCF-7; set-up: cytotoxicity at 72 h: dose or concentration left out as unconfirmed; settings: human, MCF-7 cells
Description: (§1) MTT assay was used to measure the in vitro cytotoxicity of the isolated compounds. Human breast adenocarcinoma cell line (MCF-7), human liver hepatocellular carcinoma cell line (HepG2), and human cervical cancer cell line (HeLa) were cultured in Dulbecco’s modified Eagle’s medium (DMEM) and Roswell Park Memorial Institute medium (RPMI 1640), which was supplemented with 10% fetal bovine serum (FBS) at 37 °C in a humidified atmosphere of 5% CO2. The cells were cultured in 96-well plates for 24 h and then treated with test compounds at various concentrations (8–125 μM) for 72 h. After incubation for another 4 h with a 20 µL aliquot of the MTT [3-(4,5-dimethylthiazol-2-yl)-2,5-diphenyl tetrazolium bromide] solution (5 mg/mL in PBS), the medium was discarded, and 150 µL of DMSO was added to dissolve the produced formazan. The absorbance was measured at 490 nm and 570 nm using a microplate reader. Doxorubicin was used as a positive control. Each experiment was carried out in triplicate. The IC50 values were calculated using Graphpad Prism 5 software.

[2] = MTT cytotoxicity assay, LO2; set-up: dose or concentration left out as unconfirmed; settings: human, LO2 normal liver cells
[3] = MTT cytotoxicity assay, HeLa; set-up: cytotoxicity at 72 h / Cytotoxicity (%I) HeLa: dose or concentration left out as unconfirmed; settings: human, HeLa cells
Description: as §1

[4] = MTT cytotoxicity assay, HepG2; set-up: cytotoxicity at 72 h / Cytotoxicity (%I) HepG2: dose or concentration left out as unconfirmed; settings: human, HepG2 cells
Description: as §1

[5] = system: human breast cancer cell line (MCF-7); experiment: MTT cytotoxicity assay, MCF-7; set-up: cytotoxicity at 72 h: dose or concentration left out as unconfirmed; settings: MCF-7; 4 mg/mL; MTT
Description: as §1

[6] = system: normal human liver cell line (LO2); experiment: MTT cytotoxicity assay, LO2; set-up: dose or concentration left out as unconfirmed; settings: LO2 normal liver cells; MTT
[7] = system: human cervical carcinoma cancer cell line (HeLa); experiment: MTT cytotoxicity assay, HeLa; set-up: cytotoxicity at 72 h / Cytotoxicity (%I) HeLa: dose or concentration left out as unconfirmed; settings: HeLa; MTT
Description: as §1

[8] = system: human hepatocellular carcinoma cell line (HepG2); experiment: MTT cytotoxicity assay, HepG2; set-up: cytotoxicity at 72 h / Cytotoxicity (%I) HepG2: dose or concentration left out as unconfirmed; settings: HepG2; MTT
Description: as §1

[9] = system: three human tumor cell lines (HepG2, MCF-7, and HeLa); experiment: MTT cytotoxicity assay, summary over three tumor cell lines
[10] = system: human cervical carcinoma cancer cell line (HeLa); set-up: Cytotoxicity (%I) HeLa: dose or concentration left out as unconfirmed
Description: as §1

[11] = system: human breast cancer cell line (MCF-7)
Description: as §1

[12] = system: normal human liver cell line (LO2); set-up: dose or concentration left out as unconfirmed
[13] = system: human hepatocellular carcinoma cell line (HepG2); set-up: Cytotoxicity (%I) HepG2: dose or concentration left out as unconfirmed
Description: as §1

Compound | cytotoxicity at 72 h [1] | cytotoxicity at 72 h [2] | cytotoxicity at 72 h [3] | cytotoxicity at 72 h [4] | further results
CC(C)c1cc2c(cc1O)[C@@]1(C)CCCC(C)(C)[C@@H]1CC2=O [Compound 3, sugiol] | 9.2% | 26.6% | 12.3% | 35% | –
O=c1ccc2ccc(O)cc2o1 [Compound 13, umbelliferone] | 18% | 26.6% | 3.6% | 32.7% | –
COc1cccc2c1C(=O)c1c(O)c3c(c(O)c1C2=O)C[C@@](O)(C(=O)CO)C[C@@H]3O[C@H]1C[C@H](N)[C@H](O)[C@H](C)O1 [Doxorubicin, reference compound] | 46.5% | 46.7% | 49.5% | 42.2% | IC50 at 72 h [1]: 3.44 ± 1.59 µM; IC50 at 72 h [3]: 3.64 ± 1.37 µM; IC50 at 72 h [4]: 3.18 ± 1.19 µM
helioxanthin [Compound 5] | – | – | – | – | Cytotoxicity (%I @ 4 mg/mL) MCF-7 [5]: 10.09%; Cytotoxicity (%I) LO2 [6]: 9.05%; Cytotoxicity (%I) HeLa [7]: 0.22%; Cytotoxicity (%I) HepG2 [8]: 0.11%
CC(C)c1cc2c(cc1O)C1(C)CCCC(C)(C)C1=C(O)C2=O (centres unmarked) [Compound 6, 6,12-dihydroxyabieta-5,8,11,13-tetraen-7-one] | 84% | 27.8% | 83.8% | 86.6% | IC50 at 72 h [1]: 58.4 ± 2.45 µM; IC50 at 72 h [3]: 24.4 ± 2.05 µM; cytotoxicity in words ([9]; HepG2, MCF-7 and HeLa, MTT): moderate cytotoxicity; IC50 ([9]; Homo sapiens, read-out: IC50 values, range over all three cell lines): 24.4 to 58.4 µM; IC50 at 72 h [4]: 48.7 ± 1.31 µM
C=C1CCC2C(C)(C(=O)O)CCCC2(C)C1C=CC(C)=O [Compound 1, (4R,5S,9S,10R)-13-des-ethyl-13-oxolabda-8(17),11E-dien-19-oic acid] | 28.4% | 20.6% | 26.4% | 18.4% | –
C=C1CC[C@@H]2[C@](C)(CCC[C@]2(C)C(=O)O)[C@H]1C/C=C(/C)C=O [Compound 2, 15-nor-14-oxolabda-8(17),12Z-dien-19-oic acid] | 21.1% | 10.6% | 23.9% | 16.1% | –
sempervirol [Compound 10] | – | – | – | – | Cytotoxicity (%I) HeLa [10]: 63.4%; IC50 [10]: 56.9 ± 2.39 µM; Cytotoxicity (%I @ 4 mg/mL) MCF-7 [11]: 43.4%; IC50 [11]: 80 ± 1.2 µM; Cytotoxicity (%I) LO2 [12]: 19.08%; Cytotoxicity (%I) HepG2 [13]: 48.67%; IC50 [13]: 64.9 ± 2.64 µM; cytotoxicity in words [9]: weaker activity
